Reference: paper PMC11672400, “Synthesis, Spectroscopic Characterization, Structural Analysis, and Evaluation of Anti-Tumor, Antimicrobial, and Antibiofilm Activities of Halogenoaminopyrazoles Derivatives” (Antibiotics, 2024)
Values after ≈ are worked out from the molar mass of the structure shown. Like-named read-outs stand apart in the source and are kept apart here.

Key:
[1] = system: Pseudomonas aeruginosa ATCC27853; assay: Antibiofilm assay (crystal violet), MBIC; format: cell-based; settings: 37 °C; for minimal effective concentration: Pseudomonas aeruginosa, ATCC27853, 24 h, read-out: Minimum biofilm inhibition concentration (MBIC), Pseudomonas aeruginosa ATCC27853
Protocol: (§1) Microorganisms were grown in 96-well plates filled with nutrient broth along with test substances, followed by incubation at 37 °C for 24 h. Plates were cleaned and rinsed thrice using SPW solution (sterile physiological water). After that, the attached cells were treated with 110 μL of methanol for 5 min, and then the methanol was removed by turning it upside down. […] Once stained, the solution was removed, and the plates were washed with running tap water. […] The antimicrobial/antibiofilm activity of the compounds was evaluated against two antibiotics, commercial formulations of metronidazole and nitrofurantoin.

[2] = system: Escherichia coli ATCC25922; assay: Antibiofilm assay (crystal violet), MBIC; format: cell-based; settings: 37 °C; for minimal effective concentration: Escherichia coli, ATCC25922, 24 h, read-out: Minimum biofilm inhibition concentration (MBIC), Escherichia coli ATCC25922
Protocol: as §1

[3] = system: Enterococcus faecalis ATCC29212; assay: Antibiofilm assay (crystal violet), MBIC; format: cell-based; settings: 37 °C; for minimal effective concentration: Enterococcus faecalis, ATCC29212, 24 h, read-out: Minimum biofilm inhibition concentration (MBIC), Enterococcus faecalis ATCC29212
Protocol: as §1

[4] = system: Staphylococcus aureus ATCC25923; assay: Antibiofilm assay (crystal violet), MBIC; format: cell-based; settings: Staphylococcus aureus, ATCC25923; 24 h, 37 °C; read-out: Minimum biofilm inhibition concentration (MBIC), Staphylococcus aureus ATCC25923
Protocol: as §1

[5] = system: Pseudomonas aeruginosa ATCC27853; assay: MIC by serial microdilution in liquid medium; format: cell-based; settings: 24 h, 37 °C; for MIC: Pseudomonas aeruginosa, ATCC27853, read-out: Minimum inhibitory concentration, Pseudomonas aeruginosa ATCC27853
Protocol: (§2) The minimum inhibitory concentrations (MIC) were determined by the serial microdilution method in a liquid medium (Tryptone Soy Broth), on 96-well plates. Serial binary dilutions of the compound stock solution (10 mg/mL in DMSO) were carried out in 90 µL of culture medium and 10 µL of 10^6 CFU/mL (Colony Forming Units) microbial suspension. Each test included a positive control (wells with culture medium and microbial suspension) and a negative control for medium sterility. After incubation at 37 °C for 24 h the plates were visually examined, and optical density was measured at 620 nm. […] The MIC value (µg/mL) for the chemical compound was determined by the concentration in the final well without bacterial growth. All experiments were performed in triplicate.

[6] = system: Escherichia coli ATCC25922; assay: MIC by serial microdilution in liquid medium; format: cell-based; settings: 24 h, 37 °C; for MIC: Escherichia coli, ATCC25922, read-out: Minimum inhibitory concentration, Escherichia coli ATCC25922
Protocol: as §2

[7] = system: Enterococcus faecalis ATCC29212; assay: MIC by serial microdilution in liquid medium; format: cell-based; settings: 24 h, 37 °C; for MIC: Enterococcus faecalis, ATCC29212, read-out: Minimum inhibitory concentration, Enterococcus faecalis ATCC29212
Protocol: as §2

[8] = system: Staphylococcus aureus ATCC25923; assay: MIC by serial microdilution in liquid medium; format: cell-based; settings: 24 h, 37 °C; for MIC: Staphylococcus aureus, ATCC25923, read-out: Minimum inhibitory concentration, Staphylococcus aureus ATCC25923
Protocol: as §2

[9] = system: Pseudomonas aeruginosa ATCC27853; assay: Qualitative evaluation of antimicrobial activity (inhibition zone, spot on agar); format: cell-based; design: key: (+) inhibited bacterial growth; (-) did not inhibit bacterial growth; settings: 0.06 g/2 mL DMSO, 5 µL spot
Protocol: (§3) For testing the antimicrobial/antibiofilm activity, the concentration of the studied compounds was identical to 0.06 g/2 mL DMSO. 0.5 Standard McFarland suspension was used, which was inoculated onto Mueller Hinton agar plates, (Remel, Lenexa, KS, USA), 5 µL of each compound was spotted and incubated overnight at 37 °C. Antimicrobial activity was observed as zones of inhibition formed around the spot.

[10] = system: Escherichia coli ATCC25922; assay: as above; format: cell-based; design: key: (+) inhibited bacterial growth; (-) did not inhibit bacterial growth; settings: 0.06 g/2 mL DMSO, 5 µL spot
Protocol: as §3

[11] = system: Enterococcus faecalis ATCC29212; assay: as above; format: cell-based; design: key: (+) inhibited bacterial growth; (-) did not inhibit bacterial growth; settings: 0.06 g/2 mL DMSO, 5 µL spot
Protocol: as §3

[12] = system: Staphylococcus aureus ATCC25923; assay: as above; format: cell-based; design: key: (+) inhibited bacterial growth; (-) did not inhibit bacterial growth; settings: 0.06 g/2 mL DMSO, 5 µL spot
Protocol: as §3

[13] = MTT cell viability / cytotoxicity on normal fibroblasts; format: cell-based, mouse; settings: mouse, read-out: Cell viability on NCTC cells (%)
Text: Merck chemicals were utilized.
Untreated cells were used as control, considered 100% viable cells.

[14] = system: HEp-2 epithelial tumor cells; assay: MTT cell viability / anti-tumor activity; settings: Homo sapiens, read-out: Cell viability on Hep2 cells (%)
Protocol: The cytotoxicity of the halogenoaminopyrazole derivatives 4a–f and 5a–e was tested on L929 mouse fibroblast cells, and their anti-tumor activity was evaluated on the human carcinoma epithelial cell line HEp-2. The experiments were performed in a concentration range of 3.1–50 μg/mL.
The MTT test was used, 3-(4,5-dimethylthiazol-2-yl)-2,5-diphenyl tetrazolium bromide), which is reduced to insoluble purple-blue formazan crystals precipitated by living cells. Cell viability assessed using the MTT assay reflects the activity of mitochondrial enzymes in treated cells compared to the control culture of untreated cells.
To assess the biocompatibility of the substances, a stable mouse fibroblast cell line, NCTC (clone 929), was grown in minimal essential medium (MEM) with 10% fetal bovine serum (FBS) and 2 mM L-glutamine, along with 100 U/mL penicillin, 100 µg/mL streptomycin, and 500 µg/mL neomycin. The concentration of the compounds used was 0.06 g/2 mL DMSO.
In cytotoxicity experiments, compound solutions were utilized at concentrations of 3.1 μg/mL, 6.25 μg/mL, 12.5 μg/mL, 25 μg/mL, and 50 μg/mL. The NCTC cell suspension was placed into 96-well culture plates with a concentration of 4 × 10^4 cells/mL and incubated at 37 °C for 24 h in a 5% CO2 humidified atmosphere. The compounds under study were placed in sets of three at varying concentrations ranging from 3.1 μg/mL to 50 μg/mL in every well, and the plates were then kept under standard conditions for 48 h. Cell viability was determined through the utilization of the MTT assay. Next, the MTT solution was removed, then isopropanol was added to solubilize the formazan crystals. The colored solution was then measured for absorbance at 570 nm using a Berthold Technologies, LB 940 microplate reader (Bad Wildbad, Germany). The outcomes were determined based on Formula (1) while considering that the recorded optical density is directly related to the number of viable cells in the cell culture being examined [35, 36]. % cell viability = (OD sample/OD control) × 100%(1)
For each tested compound, a graph representing percentage cell viability versus concentrations (in the range 3.1–50 µg/mL) was obtained. Then, the IC50 value was calculated by using ED50 plus V1.0 software.

O=C1CN(/N=C/c2ccc([N+](=O)[O-])o2)C(=O)N1 [Nitrofurantoin, nitrofurantoin, reference compound]
minimal effective concentration [1]: 550 ± 0.23 µg/mL
minimal effective concentration [2]: 600 ± 0.03 µg/mL
minimal effective concentration [3]: 600 ± 0.17 µg/mL
minimal effective concentration [4]: 2230 ± 0.13 µg/mL
MIC [5]: 3571 ± 0.08 µg/mL (≈ 15 mM)
MIC [6]: 600 ± 0.02 µg/mL (≈ 2.52 mM)
MIC [7]: 600 ± 0.12 µg/mL (≈ 2.52 mM)
MIC [8]: 600 ± 0.04 µg/mL (≈ 2.52 mM)
Qualitative antimicrobial activity, Pseudomonas aeruginosa ATCC27853 [9]: +
Qualitative antimicrobial activity, Escherichia coli ATCC25922 [10]: +
Qualitative antimicrobial activity, Enterococcus faecalis ATCC29212 [11]: +
Qualitative antimicrobial activity, Staphylococcus aureus ATCC25923 [12]: +

Cc1nn(CN(Cn2nc(C)c([N+](=O)[O-])c2C)c2ccc(Br)cc2)c(C)c1[N+](=O)[O-] [5c, N,N-bis-[(3,5-dimetyl-4-nitro-1H-pyrazol-1-yl)-methyl]-4-bromoaniline]
Minimum biofilm inhibition concentration (MBIC), Pseudomonas aeruginosa ATCC27853 ([1]; 24 h): 1870 ± 0.53 µg/mL
minimal effective concentration [1]: 1870 µg/mL
Minimum biofilm inhibition concentration (MBIC), Escherichia coli ATCC25922 ([2]; 24 h): 3750 ± 0.48 µg/mL
minimal effective concentration [2]: 3750 µg/mL
Minimum biofilm inhibition concentration (MBIC), Enterococcus faecalis ATCC29212 ([3]; 24 h): 1870 ± 0.06 µg/mL
minimal effective concentration [3]: 1870 µg/mL
minimal effective concentration [4]: 1870 ± 0.15 µg/mL
Minimum inhibitory concentration, Pseudomonas aeruginosa ATCC27853 [5]: 3750 ± 0.51 µg/mL (≈ 7.84 mM)
MIC [5]: 3750 µg/mL (≈ 7.84 mM)
Minimum inhibitory concentration, Escherichia coli ATCC25922 [6]: 3750 ± 0.54 µg/mL (≈ 7.84 mM)
MIC [6]: 3750 µg/mL (≈ 7.84 mM)
Minimum inhibitory concentration, Enterococcus faecalis ATCC29212 [7]: 3750 ± 0.08 µg/mL (≈ 7.84 mM)
MIC [7]: 3750 µg/mL (≈ 7.84 mM)
Minimum inhibitory concentration, Staphylococcus aureus ATCC25923 [8]: 3750 ± 0.04 µg/mL (≈ 7.84 mM)
MIC [8]: 3750 µg/mL (≈ 7.84 mM)
Qualitative antimicrobial activity, Pseudomonas aeruginosa ATCC27853 [9]: -
Qualitative antimicrobial activity, Escherichia coli ATCC25922 [10]: -
Qualitative antimicrobial activity, Enterococcus faecalis ATCC29212 [11]: -
Qualitative antimicrobial activity, Staphylococcus aureus ATCC25923 [12]: -
viability at 24 h, 3.1 µg/mL ([13]; 3.1 µg/mL, 24h): 105 ± 1.96%
viability at 48 h, 3.1 µg/mL ([13]; 3.1 µg/mL, 48h): 96.7 ± 2.96%
viability at 24 h, 6.25 µg/mL ([13]; 6.25 µg/mL, 24h): 106 ± 2.3%
viability at 48 h, 6.25 µg/mL ([13]; 6.25 µg/mL, 48h): 101 ± 3.63%
viability at 24 h, 12.5 µg/mL ([13]; 12.5 µg/mL, 24h): 106 ± 3.74%
viability at 48 h, 12.5 µg/mL ([13]; 12.5 µg/mL, 48h): 97.4 ± 1.99%
viability at 24 h, 25 µg/mL ([13]; 25 µg/mL, 24h): 105 ± 1.88%
viability at 48 h, 25 µg/mL ([13]; 25 µg/mL, 48h): 96.6 ± 2.02%
viability at 24 h, 50 µg/mL ([13]; 50 µg/mL, 24h): 84 ± 2.12%
viability at 48 h, 50 µg/mL ([13]; 50 µg/mL, 48h): 68 ± 1.61%
melting point: 133 to 135 °C
viability at 3.1 µg/mL ([14]; HEp-2, 24 h): 112 ± 2.32%
viability at 6.25 µg/mL ([14]; HEp-2, 24 h): 114 ± 2.18%
viability at 12.5 µg/mL ([14]; HEp-2, 24 h): 117 ± 2.83%
viability at 25 µg/mL ([14]; HEp-2, 24 h): 113 ± 1.52%
viability at 50 µg/mL ([14]; HEp-2, 24 h): 102 ± 2.71%
viability at 3.1 µg/mL ([14]; HEp-2, 48 h): 96.9 ± 1.38%
viability at 6.25 µg/mL ([14]; HEp-2, 48 h): 96.5 ± 1.58%
viability at 12.5 µg/mL ([14]; HEp-2, 48 h): 89.2 ± 2.02%
viability at 25 µg/mL ([14]; HEp-2, 48 h): 65.3 ± 2.09%
viability at 50 µg/mL ([14]; HEp-2, 48 h): 50.2 ± 2.02%
